Values of other authors as cited in article PMC3202968 (Journal of the American Chemical Society, 2010).

Cc1cc(C)nc(N)c1 [2-amino-4,6-dimethylpyridine]
pKa: about 7.1
